# Measurements published in publication PMC12124432, “Antimicrobial Peptide‐Peptoid Macrocycles from the Polymyxin B2 Chemical Space” (Angewandte Chemie (International Ed. in English), 2025).
# Bridge positions count the residues as written; N and C are the ends. Square brackets hold non-standard residues; d marks the D form. Peptide text beside a SMILES is read from it. * marks the point of attachment. N(3-phenylpropyl)Gly = O=C(O)CNCCCc1ccccc1; Gly(NCH2CH2Ph) = O=C(O)CNCCc1ccccc1; Gly(N-2-aminoethyl) = NCCNCC(=O)O; Gly(N(CH2)3NH2) = NCCCNCC(=O)O; Gly(N-cPent) = O=C(O)CNC1CCCC1; Heptanoyl = CCCCCCC(=O)*; Nphe = O=C(O)CNCc1ccccc1; Octanoyl = CCCCCCCC(=O)*; Dab = NCC[C@H](N)C(=O)O; NPrGly = CCCNCC(=O)O
# Key:
# P. aeruginosa PAO1 [1] = experiment: Transmission electron microscopy (TEM); format: cell-based, Pseudomonas aeruginosa; conditions: 10 × MIC, 12.5% MH, 2 h incubation at 37 °C, OD600 = 0.5
# Description: Specific Fluorescence Enhacement
# Concentration of Dansyl-PMB (μM)
# Figure S9. Extracted data from the specific fluorescence enhancement data (Figure S8) from DsPMB at 485 nm. The plateau is reached at approximately 2.5 µM. Each data point represent mean ± SD, n =3.
# 15. Transmission Electron Microscopy (TEM)
# Transmission electron microscopy was evaluated at a high cell density (10^8 CFU) and a concentration (10x MIC) that killed the bacteria, but not all of them. An overnight culture of P. aeruginosa PAO1 was regrown until exponential phase (1 mL, OD600 = 0.5) in 12.5% MH medium pH 7.4, treated with the compounds, in diluted MH medium (at pH 7.4) and incubated for 2 hours at 37 °C. Just before the samples were further prepared for the microscopy, surviving bacteria were quantified by plating 10-fold dilutions of samples in sterilized normal saline (NaCl 0.9 %) on LB agar plates. LB agar plates were incubated at 37 °C for 10 hours and the number of individual colonies was counted at each time-point, to monitor partial bacteria killing. The assay was performed in triplicates. Each bacteria sample was centrifuged at 12’000 rpm for 3 min and the supernatant was discarded. The samples were fixed overnight with 2.5% glutaraldehyde (Agar Scientific, Stansted, Essex, UK) in 0.15 M HEPES (Fluka, Buchs, Switzerland) with an osmolarity of 630 mOsm and adjusted to a pH of 7.44. […]
# P. aeruginosa PAO1 [2] = format: cell-based, Pseudomonas aeruginosa; conditions: for Effect of salt on antibacterial activity against P. aeruginosa: NaCl 0-300 mM in 12.5% Mueller-Hinton broth at pH 8.5; for MIC on P. aeruginosa, 0 mM NaCl / MIC on P. aeruginosa, 100 mM NaCl / MIC on P. aeruginosa, 200 mM NaCl / MIC on P. aeruginosa, 300 mM NaCl: PAO1, pH 8.5
# Description: Minimal Inhibitory Concentration (MIC)
# Antimicrobial activity was assayed for all the peptide-peptoids against P. aeruginosa PAO1, K. pneumoniae NCTC418, E. coli W3110, A. baumannii ATCC 19606, methicillin-resistant S. aureus COL (MRSA) and for selected peptides on P. aeruginosa PA14, as well as the clinical isolates ZEM-1A and ZEM9A, K. pneumoniae OXA-48, Enterobacter cloacae, Stenotrophomonas maltophilia and Staphylococus epidermidis. To determine the Minimal Inhibitory Concentration (MIC), Broth Microdilution method was used. A colony of bacteria was picked and grown in LB medium overnight at 37 °C. The next day, the culture was then regrown in LB medium to log phase (OD600 = 0.6 to 0.8), which lasted approximately 4 hours, and diluted to an OD600 of 0.022 in the desired medium (full MH or 12.5% MH).
# The compounds were prepared as stock solutions of 2 mg/mL in sterilized MilliQ deionized water and then diluted in the desired media (full MH or 12.5% MH) to reach the first concentration tested (32 μg/mL). The compounds were added to the first well of a 96-well sterile, round bottom microtiter plates in polystyrene (TPP®, untreated) and diluted serially by ½ in the desired media (full MH or 12.5% MH), to a final volume of 150 µL/well. To each well was finally added 4 µL of the diluted bacterial suspension (see above), corresponding to approximately 5×10^5 CFU. For each test, two columns of the plate were kept for sterility control (medium only), growth control (medium with bacterial inoculum, no compound). The positive control, Polymyxin B (starting with a concentration of 16 µg/mL) in MH medium with bacterial inoculums, was introduced in the two first lines of the plate. The plates were incubated at 37 °C for ca. 18 hours under static conditions. 15 µL of 3-(4,5-dimethylthiazol-2-yl)-2,5-diphenyltetrazolium bromide (MTT)[7] (1 mg/mL in sterilized MilliQ deionized water) were added to each well and the plates were incubated for 20-30 minutes at room temperature. The […]
# minimal inhibitory concentration (MIC) was defined as the lowest concentration of the compound that inhibits the visible growth of the tested bacteria (yellow) with the unaided eye.
# Minimal Hemolytic Concentration (MHC) […]
# 11. Minimal inhibitory in presence of salt
# The same procedure as for the antibacterial activity measurements by minimal inhibitory concentration assay (MIC) was applied. The media, 12.5% Mueller-Hinton broth was this time supplemented with different salt concentrations (0, 100, 200 300 mM NaCl). The MIC activities were then determined against Pseudomonas aeruginosa PAO1 and Escherichia coli […]
# Table S6. Minimal inhibitory concentration (MIC) on P. aeruginosa PAO1 as function of salt […]
# All data, in μg/mL, measured against P. aeruginosa PAO1, with or without addition of salt (NaCl). The values were measured in dilute medium (12.5% MH) and at slightly basic pH (pH = 8.5), after incubation for 16-20 h at 37 °C. Values represent two different duplicate MIC determinations.
compound,measurement,setting,value
CCCCCCCC(=O)N(CCc1ccccc1)CC(=O)N[C@@H](CCCCN)C(=O)N[C@@H](CC(N)=O)C(=O)N[C@H]1CCNC(=O)[C@H](CCCCN)NC(=O)CN(CCCN)C(=O)[C@H](CCCCN)NC(=O)CN(CCC)C(=O)[C@H](CCCCN)NC1=O [EB12] (Octanoyl-[Gly(NCH2CH2Ph)]KN[Dab]K[NPrGly]K[Gly(N(CH2)3NH2)]K; lactam 4-C),TEM pattern of treated P. aeruginosa cells,P. aeruginosa PAO1 [1],aggregation of intracellular contents
same,Effect of salt on antibacterial activity against P. aeruginosa,P. aeruginosa PAO1 [2],inhibited by high salt concentrations
same,"MIC on P. aeruginosa, 0 mM NaCl",P. aeruginosa PAO1 [2],2 to 4 µg/mL
same,"MIC on P. aeruginosa, 100 mM NaCl",P. aeruginosa PAO1 [2],32 µg/mL
same,"MIC on P. aeruginosa, 200 mM NaCl",P. aeruginosa PAO1 [2],> 64 µg/mL
same,"MIC on P. aeruginosa, 300 mM NaCl",P. aeruginosa PAO1 [2],> 64 µg/mL
CCCCCCC(=O)N[C@H](C(=O)N(CCN)CC(=O)N(CCCc1ccccc1)CC(=O)N[C@H]1CCNC(=O)[C@H](CCCCN)NC(=O)CN(CCCN)C(=O)[C@H](CCCCN)NC(=O)CNC(=O)[C@H](CCCCN)NC1=O)C(C)C [EB13] (Heptanoyl-V[Gly(N-2-aminoethyl)][N(3-phenylpropyl)Gly][Dab]KGK[Gly(N(CH2)3NH2)]K; lactam 4-C),TEM pattern of treated P. aeruginosa cells,P. aeruginosa PAO1 [1],aggregation of intracellular contents
same,Effect of salt on antibacterial activity against P. aeruginosa,P. aeruginosa PAO1 [2],inhibited by high salt concentrations
same,"MIC on P. aeruginosa, 0 mM NaCl",P. aeruginosa PAO1 [2],4 µg/mL
same,"MIC on P. aeruginosa, 100 mM NaCl",P. aeruginosa PAO1 [2],> 64 µg/mL
same,"MIC on P. aeruginosa, 200 mM NaCl",P. aeruginosa PAO1 [2],> 64 µg/mL
same,"MIC on P. aeruginosa, 300 mM NaCl",P. aeruginosa PAO1 [2],> 64 µg/mL
CCCCCCCC(=O)N[C@@H](CCCCN)C(=O)N(CC(=O)N[C@@H](CCCCN)C(=O)N[C@H]1CCNC(=O)[C@H](CCCCN)NC(=O)CN(C2CCCC2)C(=O)CN(CCN)C(=O)[C@H](CCCCN)NC(=O)[C@H](CC(N)=O)NC1=O)Cc1ccccc1 [EB21] (Octanoyl-K[Nphe]K[Dab]NK[Gly(N-2-aminoethyl)][Gly(N-cPent)]K; lactam 4-C),Effect of salt on antibacterial activity against P. aeruginosa,P. aeruginosa PAO1 [2],inhibited by high salt concentrations
same,"MIC on P. aeruginosa, 0 mM NaCl",P. aeruginosa PAO1 [2],4 µg/mL
same,"MIC on P. aeruginosa, 100 mM NaCl",P. aeruginosa PAO1 [2],> 64 µg/mL
same,"MIC on P. aeruginosa, 200 mM NaCl",P. aeruginosa PAO1 [2],> 64 µg/mL
same,"MIC on P. aeruginosa, 300 mM NaCl",P. aeruginosa PAO1 [2],> 64 µg/mL
